Our source for the TGI values is PubChem BioAssay (NCI).

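Exposure lasted 48 hours, with cells grown in 96-well plates and compounds tested at five concentrations. Definition used: TGI = concentration required for complete inhibition of growth.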 Bounds are passed on as bounds.

Some test systems named below: RPMI-8226 leukemia; MALME-3M melanoma; MDA-N; HOP-92 NSCLC; U251 CNS; TK-10 renal; SK-MEL-2 melanoma; SF-539 CNS; COLO 205 colon; LOX IMVI melanoma; NCI/ADR-RES ovarian; HOP-62 NSCLC; NCI-H23 lung; UO-31 renal; OVCAR-3 ovarian; RXF 393 renal; SF-268 CNS; PC-3 prostate; HS 578T breast.
What all share (experiment): NCI-60 cell line screen, 48 h

In the case of `CC1(CCCCO)C=CC(S(=O)(=O)c2ccccc2)CC1` (stereo not given), the TGI is 11 µM with RPMI-8226 leukemia; 12.1 µM in the assay with MALME-3M melanoma; 14.4 µM with MDA-N; 7.04 µM with HOP-92 NSCLC; 21.5 µM in the assay on U251 CNS; 19.1 µM in the assay with TK-10 renal. Further, the TGI stood at 23.1 µM with SK-MEL-2 melanoma; 20.2 µM with SF-539 CNS; 14.4 µM in the assay with COLO 205 colon; 3.65 µM in the assay with LOX IMVI melanoma; 12.5 µM in the assay with NCI/ADR-RES ovarian; 12.1 µM in the assay on HOP-62 NSCLC. Further, the TGI in the assay with NCI-H23 lung came to 17.8 µM; in the assay with UO-31 renal, 16.3 µM; with OVCAR-3 ovarian, 19 µM; with RXF 393 renal, 17 µM; in the assay with SF-268 CNS, 12.4 µM; with PC-3 prostate, 15.1 µM.

Take `CCOP(=O)(/C=C\n1ccc(=O)[nH]c1=O)OCC`: the TGI in the assay with RPMI-8226 leukemia, in the assay on MDA-N, in the assay with U251 CNS, in the assay on TK-10 renal, in the assay on SK-MEL-2 melanoma and with SF-539 CNS was over 100 µM throughout. Moreover, the TGI in the assay with COLO 205 colon, in the assay on LOX IMVI melanoma, with NCI/ADR-RES ovarian, with HOP-62 NSCLC, in the assay with NCI-H23 lung and in the assay with OVCAR-3 ovarian was over 100 µM in each case. Further, the TGI in the assay with RXF 393 renal, with SF-268 CNS and in the assay on PC-3 prostate was over 100 µM each time.

Take `O=C(NN1C(=O)C(Cl)C1c1c(O)ccc2ccccc12)c1ccccc1O` (stereo not given): the TGI in the assay with MALME-3M melanoma, with U251 CNS, in the assay with TK-10 renal, in the assay on SK-MEL-2 melanoma, in the assay on SF-539 CNS and with LOX IMVI melanoma was over 100 µM throughout. Also, the TGI with NCI-H23 lung, in the assay on UO-31 renal, with OVCAR-3 ovarian, in the assay with RXF 393 renal and in the assay on SF-268 CNS was over 100 µM in each case.

With `Cn1cnnc1SC(F)(F)c1nc2ccccc2o1`, the TGI in the assay with RPMI-8226 leukemia, with MALME-3M melanoma, in the assay with MDA-N, with HOP-92 NSCLC, in the assay with U251 CNS and in the assay on TK-10 renal was over 100 µM each time. Besides, the TGI in the assay on SK-MEL-2 melanoma, with SF-539 CNS, with COLO 205 colon, with NCI/ADR-RES ovarian, in the assay on HOP-62 NSCLC and with NCI-H23 lung was over 100 µM throughout. The TGI in the assay on UO-31 renal, with OVCAR-3 ovarian, in the assay with RXF 393 renal, in the assay with SF-268 CNS and in the assay with PC-3 prostate was over 100 µM each time.

As to `Cn1c(=O)c(C(=O)NC23CC4CC(CC(C4)C2)C3)c(O)c2ccccc21`, the TGI with RPMI-8226 leukemia was over 100 µM; in the assay with MALME-3M melanoma it was 44.7 µM; in the assay with U251 CNS it was 59.7 µM; with TK-10 renal, 48 µM; in the assay with SF-539 CNS, over 100 µM; in the assay with COLO 205 colon it was over 100 µM. Further, the TGI in the assay with LOX IMVI melanoma is over 100 µM; in the assay with HOP-62 NSCLC, 43.6 µM; in the assay on NCI-H23 lung, over 100 µM; in the assay with UO-31 renal, over 100 µM; with OVCAR-3 ovarian it was 63 µM; in the assay with RXF 393 renal, 35.9 µM. For the same compound, in the assay on SF-268 CNS, the TGI was over 100 µM.

Take `COc1cccc2c1[C@H]1OC(=O)NC1CCCCC2` (stereo not given in full): the TGI in the assay with RPMI-8226 leukemia, in the assay on MALME-3M melanoma, with U251 CNS, in the assay on TK-10 renal, in the assay on SK-MEL-2 melanoma and with SF-539 CNS was over 100 µM each time. For the same compound, the TGI in the assay on COLO 205 colon, in the assay with LOX IMVI melanoma, in the assay with HOP-62 NSCLC, with NCI-H23 lung, in the assay on UO-31 renal and in the assay on OVCAR-3 ovarian was over 100 µM in each case. The TGI with RXF 393 renal and in the assay on SF-268 CNS was over 100 µM throughout.

Consider `CO[C@]12C[C@@H](CNC(=O)c3cc(Br)c[nH]3)O[C@H]1NC(=O)N2`, for which the TGI with RPMI-8226 leukemia, with MALME-3M melanoma, with HS 578T breast, in the assay on HOP-92 NSCLC, with U251 CNS and with TK-10 renal was over 100 µM each time. In addition, the TGI in the assay with SK-MEL-2 melanoma, in the assay on SF-539 CNS, in the assay on COLO 205 colon, in the assay on NCI/ADR-RES ovarian, in the assay on HOP-62 NSCLC and in the assay on NCI-H23 lung was over 100 µM in each case. Also, the TGI with UO-31 renal, in the assay on OVCAR-3 ovarian, with SF-268 CNS and with PC-3 prostate was over 100 µM each time.

In the case of `Nc1c(C(=O)c2ccccc2)nnc2ccccc12`, the TGI was over 100 µM with RPMI-8226 leukemia; 79.1 µM with MALME-3M melanoma; 48.7 µM with HOP-92 NSCLC; over 100 µM in the assay with U251 CNS; 54.7 µM in the assay on TK-10 renal; 38.3 µM in the assay on SK-MEL-2 melanoma. The TGI in the assay with SF-539 CNS is 87.3 µM; with COLO 205 colon it was 36 µM; in the assay with LOX IMVI melanoma it was over 100 µM; with NCI/ADR-RES ovarian, 64.6 µM; with HOP-62 NSCLC, over 100 µM; in the assay on NCI-H23 lung, over 100 µM. For the same compound, the TGI was over 100 µM with UO-31 renal, over 100 µM in the assay with SF-268 CNS and 59.6 µM in the assay on PC-3 prostate.

Consider `O=C1c2ccccc2-n2c1nc1ccc(Cl)cc1c2=O`, for which the TGI in the assay with RPMI-8226 leukemia is over 100 µM; in the assay with MDA-N, 48.3 µM; in the assay on HOP-92 NSCLC it was over 100 µM; in the assay with U251 CNS, over 100 µM; with TK-10 renal, over 100 µM; in the assay on SK-MEL-2 melanoma, over 100 µM. Besides, the TGI in the assay with SF-539 CNS, in the assay on COLO 205 colon, in the assay on LOX IMVI melanoma, in the assay with NCI/ADR-RES ovarian, with HOP-62 NSCLC and in the assay on NCI-H23 lung was over 100 µM in each case. Besides, the TGI is over 100 µM in the assay with UO-31 renal, over 100 µM with OVCAR-3 ovarian, 44.8 µM in the assay with RXF 393 renal and over 100 µM in the assay on PC-3 prostate.
